Measured values as given in ChEMBL document CHEMBL1201862, “PubChem BioAssay data set” (2004).
Calls of active or inactive are those of the source.

Experiments:
[1] = Artemis endonuclease inhibitor potency, dose response, biochemical, fluorescence intensity (AID 720701); format: functional;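 note: Artemis endonuclease enzyme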
[2] = target: T1, Short transient receptor potential channel 4 (Mus musculus, UniProt Q9QUQ5); assay: mouse TRPC4 channel inhibitors, dose response, cell-based, HEK293 TRPC4/mu-opioid, Fluo-4 calcium (AID 434942); format: functional;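 note: potency of inhibitors blocking the TRPC4 calcium response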
T1 sequence (Q9QUQ5 whole entry): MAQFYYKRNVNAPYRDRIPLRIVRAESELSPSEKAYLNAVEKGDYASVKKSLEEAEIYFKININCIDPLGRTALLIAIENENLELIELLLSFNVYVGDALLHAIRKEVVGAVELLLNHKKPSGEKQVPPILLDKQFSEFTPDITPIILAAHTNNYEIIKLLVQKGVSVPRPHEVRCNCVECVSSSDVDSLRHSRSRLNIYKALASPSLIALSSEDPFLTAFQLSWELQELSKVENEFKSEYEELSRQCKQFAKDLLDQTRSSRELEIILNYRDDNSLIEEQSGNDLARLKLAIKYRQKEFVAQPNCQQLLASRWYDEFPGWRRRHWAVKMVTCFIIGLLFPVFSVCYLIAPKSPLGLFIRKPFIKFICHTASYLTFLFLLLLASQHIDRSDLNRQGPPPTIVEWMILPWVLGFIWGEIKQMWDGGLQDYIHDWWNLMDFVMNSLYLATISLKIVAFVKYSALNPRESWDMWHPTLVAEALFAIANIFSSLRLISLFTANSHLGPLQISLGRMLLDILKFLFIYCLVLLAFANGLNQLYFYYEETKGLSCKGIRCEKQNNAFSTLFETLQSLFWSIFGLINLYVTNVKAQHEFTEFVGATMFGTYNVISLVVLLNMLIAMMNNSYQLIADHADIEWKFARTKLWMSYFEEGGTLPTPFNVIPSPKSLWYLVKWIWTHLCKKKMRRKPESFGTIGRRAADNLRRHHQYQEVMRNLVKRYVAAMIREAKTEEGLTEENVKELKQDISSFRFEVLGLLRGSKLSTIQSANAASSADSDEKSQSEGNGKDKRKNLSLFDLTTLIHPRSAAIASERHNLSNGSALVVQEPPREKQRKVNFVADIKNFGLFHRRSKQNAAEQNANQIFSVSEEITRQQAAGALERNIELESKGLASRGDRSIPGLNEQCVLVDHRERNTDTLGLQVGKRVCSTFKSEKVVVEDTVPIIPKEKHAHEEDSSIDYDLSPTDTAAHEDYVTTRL

[3] = test system: Streptococcus sp. 'group A'; assay: growth inhibition of control SK(-) GAS strain, dose response, counter-screen for streptokinase expression inhibitor project, luminescence, kanamycin, BacTiterGlo, confirmation (AID 1900); format: functional, organism-based
[4] = target: T2, Streptokinase A (Streptococcus pyogenes serotype M1, UniProt P10520); assay: S. pyogenes streptokinase expression inhibitors, potency, dose response, plasminogen activation absorbance, OD405 (AID 1914); format: functional, Streptococcus pyogenes M1 GAS;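 note: secreted streptokinase activity via plasminogen activation per viability signal from cell pellet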
T2 sequence (P10520 whole entry): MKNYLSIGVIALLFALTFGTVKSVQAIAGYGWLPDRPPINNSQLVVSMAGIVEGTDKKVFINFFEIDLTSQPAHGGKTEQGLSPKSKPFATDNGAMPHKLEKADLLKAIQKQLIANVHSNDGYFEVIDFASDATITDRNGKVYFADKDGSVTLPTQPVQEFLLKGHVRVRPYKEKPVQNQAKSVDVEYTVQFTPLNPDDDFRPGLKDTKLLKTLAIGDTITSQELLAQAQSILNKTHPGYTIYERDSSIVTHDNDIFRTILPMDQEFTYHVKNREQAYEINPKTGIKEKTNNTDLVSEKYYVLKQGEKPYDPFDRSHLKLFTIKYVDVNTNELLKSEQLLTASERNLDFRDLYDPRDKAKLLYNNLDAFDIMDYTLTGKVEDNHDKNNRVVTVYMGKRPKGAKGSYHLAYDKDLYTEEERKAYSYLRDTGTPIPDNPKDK

[5] = test system: Streptococcus; assay: Group A Streptococcus viability loss, dose response, counter-screen for streptokinase expression inhibitor project, luminescence, BacTiterGlo (AID 1915); format: functional, organism-based;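 note: potency for reduction of bacterial viability or growth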
[6] = target: Nonstructural protein 1 (Influenza A virus, UniProt Q194T2); format: functional, Influenza A virus (A/California/07/2009(H1N1))
Sequence of Nonstructural protein 1 (Q194T2 whole entry): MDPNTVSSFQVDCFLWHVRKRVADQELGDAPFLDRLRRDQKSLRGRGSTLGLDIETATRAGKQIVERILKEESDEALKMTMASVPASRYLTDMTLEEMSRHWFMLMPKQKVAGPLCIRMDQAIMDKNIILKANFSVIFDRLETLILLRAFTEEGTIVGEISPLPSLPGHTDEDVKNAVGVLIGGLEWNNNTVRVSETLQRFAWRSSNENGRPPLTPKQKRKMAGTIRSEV

[7] = test system: INS1; assay: beta cell apoptosis inhibitors, cytokine rescue, dose response, luminescence, retest (AID 449756); format: functional, cell-based; details: Rattus norvegicus;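 note: cell death triggered by IL-1 beta plus TNF-alpha plus IFN-gamma mixture; protective hits raise ATP signal compared with cytokine alone wells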
[8] = reduction of Shn3 3'UTR firefly luciferase signal, dose response, Schnurri-3 inhibitor project, cell-based, Clone20 osteoblasts, cherry-pick, set 2 (AID 720490); format: functional;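 note: actives lower the luminescence signal as inhibitors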
[9] = Shn3 3'UTR reporter inhibitors, dose response, cell-based, Clone20 osteoblasts, firefly luciferase, cherry-picked (AID 624132); format: functional;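 note: firefly luciferase luminescence from reporter carrying the Shn3 3'UTR in osteoblasts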
[10] = target: Voltage-dependent T-type calcium channel subunit alpha-1H (Homo sapiens, UniProt O95180); format: functional;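 note: channel activity triggered by adding a high calcium stimulation buffer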
Sequence of Voltage-dependent T-type calcium channel subunit alpha-1H (O95180 whole entry): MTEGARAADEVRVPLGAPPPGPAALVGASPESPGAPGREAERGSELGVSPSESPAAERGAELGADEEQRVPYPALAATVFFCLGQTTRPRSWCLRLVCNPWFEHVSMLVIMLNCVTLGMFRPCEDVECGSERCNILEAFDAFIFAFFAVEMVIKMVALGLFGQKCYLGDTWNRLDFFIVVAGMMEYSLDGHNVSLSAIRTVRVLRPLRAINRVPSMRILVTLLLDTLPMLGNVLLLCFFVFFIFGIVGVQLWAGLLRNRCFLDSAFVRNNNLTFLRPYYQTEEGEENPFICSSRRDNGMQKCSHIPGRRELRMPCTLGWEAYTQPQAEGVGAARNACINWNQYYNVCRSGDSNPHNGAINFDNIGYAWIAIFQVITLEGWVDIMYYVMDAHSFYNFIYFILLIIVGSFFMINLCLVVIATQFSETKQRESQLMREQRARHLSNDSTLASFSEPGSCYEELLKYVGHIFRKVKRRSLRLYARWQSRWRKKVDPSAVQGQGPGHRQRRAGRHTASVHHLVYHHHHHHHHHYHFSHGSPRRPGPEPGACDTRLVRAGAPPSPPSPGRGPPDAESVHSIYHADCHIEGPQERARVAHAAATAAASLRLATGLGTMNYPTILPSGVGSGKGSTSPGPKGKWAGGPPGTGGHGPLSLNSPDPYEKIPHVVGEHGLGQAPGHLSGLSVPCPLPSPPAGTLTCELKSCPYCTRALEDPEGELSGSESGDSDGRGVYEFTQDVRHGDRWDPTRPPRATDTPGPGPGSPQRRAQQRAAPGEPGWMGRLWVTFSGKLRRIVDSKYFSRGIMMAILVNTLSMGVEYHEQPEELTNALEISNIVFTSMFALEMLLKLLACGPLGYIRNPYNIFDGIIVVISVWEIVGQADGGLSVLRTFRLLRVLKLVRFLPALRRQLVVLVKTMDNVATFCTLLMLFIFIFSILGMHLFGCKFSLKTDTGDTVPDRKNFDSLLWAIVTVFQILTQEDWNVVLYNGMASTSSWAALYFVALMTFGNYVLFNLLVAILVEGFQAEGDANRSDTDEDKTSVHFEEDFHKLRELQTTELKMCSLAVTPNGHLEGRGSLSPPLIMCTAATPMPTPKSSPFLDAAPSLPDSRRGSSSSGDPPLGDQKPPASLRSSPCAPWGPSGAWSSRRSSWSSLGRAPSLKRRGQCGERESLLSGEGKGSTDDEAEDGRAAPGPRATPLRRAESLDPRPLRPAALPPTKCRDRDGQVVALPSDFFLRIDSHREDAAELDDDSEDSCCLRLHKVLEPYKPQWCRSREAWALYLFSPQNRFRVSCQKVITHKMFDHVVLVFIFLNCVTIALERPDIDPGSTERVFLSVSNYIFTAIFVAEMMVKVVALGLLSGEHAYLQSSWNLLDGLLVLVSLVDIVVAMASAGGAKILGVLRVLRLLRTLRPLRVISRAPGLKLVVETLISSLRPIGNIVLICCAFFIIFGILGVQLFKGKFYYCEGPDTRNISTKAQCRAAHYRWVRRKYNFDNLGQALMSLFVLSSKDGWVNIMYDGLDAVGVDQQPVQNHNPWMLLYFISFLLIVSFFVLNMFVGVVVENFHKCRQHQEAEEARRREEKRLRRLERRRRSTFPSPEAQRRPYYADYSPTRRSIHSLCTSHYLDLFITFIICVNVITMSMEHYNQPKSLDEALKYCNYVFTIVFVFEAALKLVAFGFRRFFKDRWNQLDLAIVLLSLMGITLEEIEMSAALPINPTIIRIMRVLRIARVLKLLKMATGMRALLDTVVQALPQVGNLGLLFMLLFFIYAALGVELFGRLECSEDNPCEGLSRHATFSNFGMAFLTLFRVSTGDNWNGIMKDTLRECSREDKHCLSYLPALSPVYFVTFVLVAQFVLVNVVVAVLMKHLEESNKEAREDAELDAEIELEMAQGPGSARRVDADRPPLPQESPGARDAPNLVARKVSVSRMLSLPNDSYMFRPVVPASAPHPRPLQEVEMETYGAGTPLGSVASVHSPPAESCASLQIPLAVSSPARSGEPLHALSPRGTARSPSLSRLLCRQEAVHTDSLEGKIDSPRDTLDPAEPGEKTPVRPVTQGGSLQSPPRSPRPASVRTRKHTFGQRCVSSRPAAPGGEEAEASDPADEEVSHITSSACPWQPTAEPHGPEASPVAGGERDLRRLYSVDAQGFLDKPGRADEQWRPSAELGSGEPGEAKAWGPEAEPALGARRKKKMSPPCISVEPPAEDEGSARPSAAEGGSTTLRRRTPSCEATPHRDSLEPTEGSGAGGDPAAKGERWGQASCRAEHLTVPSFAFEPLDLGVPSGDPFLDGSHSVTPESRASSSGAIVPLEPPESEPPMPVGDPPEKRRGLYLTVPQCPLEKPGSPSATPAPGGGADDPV

[11] = target: 1-phosphatidylinositol 4,5-bisphosphate phosphodiesterase gamma-1 (Homo sapiens, UniProt P19174); assay: Counterscreen for inhibitors of phospholipase C isozymes (PLC-B3): Fluorescence-based biochemical high throughput dose response assay to identify inhibitors of phospholipase C isozymes (PLC-gamma1).
Sequence of 1-phosphatidylinositol 4,5-bisphosphate phosphodiesterase gamma-1 (P19174 whole entry): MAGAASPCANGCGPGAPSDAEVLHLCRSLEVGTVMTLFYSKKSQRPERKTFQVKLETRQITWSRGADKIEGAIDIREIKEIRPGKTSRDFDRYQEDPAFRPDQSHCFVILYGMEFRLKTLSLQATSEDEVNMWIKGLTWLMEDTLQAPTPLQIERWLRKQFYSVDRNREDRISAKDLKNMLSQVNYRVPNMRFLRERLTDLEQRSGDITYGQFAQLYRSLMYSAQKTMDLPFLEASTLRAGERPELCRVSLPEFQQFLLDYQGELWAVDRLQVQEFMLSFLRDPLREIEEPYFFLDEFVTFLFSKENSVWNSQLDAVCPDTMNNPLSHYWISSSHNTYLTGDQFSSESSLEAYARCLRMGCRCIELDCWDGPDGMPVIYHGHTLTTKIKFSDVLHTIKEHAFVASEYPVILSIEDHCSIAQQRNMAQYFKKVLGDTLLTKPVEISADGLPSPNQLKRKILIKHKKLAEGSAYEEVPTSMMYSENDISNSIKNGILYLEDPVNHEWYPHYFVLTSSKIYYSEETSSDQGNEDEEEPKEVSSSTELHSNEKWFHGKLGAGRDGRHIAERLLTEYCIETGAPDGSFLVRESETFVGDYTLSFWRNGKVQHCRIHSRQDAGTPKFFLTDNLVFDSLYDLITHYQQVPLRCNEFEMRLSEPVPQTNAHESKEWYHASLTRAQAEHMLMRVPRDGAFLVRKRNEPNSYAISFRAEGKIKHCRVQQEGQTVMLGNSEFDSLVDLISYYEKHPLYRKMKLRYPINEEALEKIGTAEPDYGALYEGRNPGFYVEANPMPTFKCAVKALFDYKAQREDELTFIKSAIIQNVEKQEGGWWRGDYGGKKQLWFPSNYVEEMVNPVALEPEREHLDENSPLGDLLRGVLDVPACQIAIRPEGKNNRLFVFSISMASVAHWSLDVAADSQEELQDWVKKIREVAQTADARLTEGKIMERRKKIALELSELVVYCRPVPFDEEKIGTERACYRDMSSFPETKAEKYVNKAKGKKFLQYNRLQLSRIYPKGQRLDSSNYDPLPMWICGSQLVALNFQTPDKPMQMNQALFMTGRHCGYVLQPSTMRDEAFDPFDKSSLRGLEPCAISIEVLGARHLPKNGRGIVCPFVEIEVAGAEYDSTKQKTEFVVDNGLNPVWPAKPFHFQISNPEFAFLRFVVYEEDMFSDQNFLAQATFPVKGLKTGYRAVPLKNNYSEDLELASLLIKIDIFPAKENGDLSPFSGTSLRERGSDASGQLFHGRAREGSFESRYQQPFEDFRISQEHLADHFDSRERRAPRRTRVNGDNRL

[12] = target: 1-phosphatidylinositol 4,5-bisphosphate phosphodiesterase beta-3 (Homo sapiens, UniProt Q01970); assay: Fluorescence-based biochemical high throughput dose response assay to identify inhibitors of phospholipase C isozymes (PLC-B3).
[13] = inhibitors of CMV-promoter luciferase reporter, dose response, counter-screen for Pax8 inhibitor project, cell-based, HEK293, luminescence, dry powder (AID 743020); format: functional
[14] = NIH:OVCAR-3 ovarian cancer cell cytotoxicity, dose response, PAX8 inhibitor project, plate reader, dry powder samples (AID 743044); format: functional, cell-based
[15] = cytotoxicity in OVCAR8 ovarian cancer cells, dose response, PAX8 project, cell-based, plate reader, dry powder samples (AID 743197); format: functional; details: OVCAR-8
[16] = A2780 ovarian cancer cell cytotoxicity, dose response, cytotoxicity control, plate reader, dry powder samples (AID 743046); format: functional, cell-based
[17] = IGROV1 ovarian cancer cell cytotoxicity, dose response, PAX8 inhibitor project, plate reader, dry powder samples (AID 743043); format: functional, cell-based; details: IGROV-1
[18] = target: Paired box protein Pax-8 (Homo sapiens, UniProt Q06710); assay: inhibitors of PAX8-driven TPO luciferase reporter, dose response, RMG-I cells, cherry-pick (AID 687027); format: functional, cell-based;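 note: luciferase reporter driven by Pax8 target thyroperoxidase promoter measured by SteadyGlo luminescence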
Sequence of Paired box protein Pax-8 (Q06710 whole entry): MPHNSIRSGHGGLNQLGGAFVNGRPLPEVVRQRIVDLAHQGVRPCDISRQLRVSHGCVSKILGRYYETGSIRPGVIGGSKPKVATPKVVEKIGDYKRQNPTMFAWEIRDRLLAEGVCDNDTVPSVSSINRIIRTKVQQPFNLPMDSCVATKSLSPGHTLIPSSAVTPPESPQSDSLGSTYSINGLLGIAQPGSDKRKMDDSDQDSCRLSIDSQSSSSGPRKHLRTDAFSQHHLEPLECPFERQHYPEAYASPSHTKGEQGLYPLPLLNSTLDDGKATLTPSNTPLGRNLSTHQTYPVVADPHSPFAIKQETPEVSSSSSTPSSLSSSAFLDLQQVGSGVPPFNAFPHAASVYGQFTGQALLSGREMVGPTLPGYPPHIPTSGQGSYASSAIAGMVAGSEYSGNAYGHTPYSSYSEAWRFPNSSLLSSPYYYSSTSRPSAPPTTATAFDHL

[19] = Late stage counterscreen for inhibitors of Trypanosoma brucei methionyl tRNA synthetase (MetRS): Luminescence-based cell-based high throughput dose response assay to identify compounds that are cytotoxic to Jurkat human T lymphocyte cells.; format: functional

SMILES: c1ccc(-c2nc(NCc3ccco3)c3ccccc3n2)nc1
- IC50 [1]: 8.96 µM (active)
- EC50 [2]: 0.335 µM (active)
- EC50 [3]: 3.14 µM (active)
- EC50 [4]: > 150 µM (not active)
- EC50 [5]: 12.1 µM (active)
- IC50 [6]: 14.5 µM (active)
- AC50 [7]: 3.41 µM (active)

SMILES: Cc1cccc(-c2noc(CN(C(=O)C(c3ccccc3)c3ccccc3)C(C)C)n2)c1
- AC50 [8]: 12.3 µM (active)
- AC50 [9]: 6.27 µM (active)
- EC50 [10]: 6.72 µM (active)

SMILES: CCCCN=C(S)NNC(=O)c1csc(C)c1
- IC50 [11]: > 122 µM (inactive)
- IC50 [12]: > 122 µM (inactive)

SMILES: COc1ccc2c3c(n(C)c2c1)[C@H](CO)N(Cc1ccccc1)CC31CCN(S(=O)(=O)c2ccc(C)cc2)CC1
- AC50 [13]: 14.3 µM (active)
- AC50 [14]: 17.8 µM (active)
- AC50 [15]: 13.2 µM (active)
- AC50 [16]: 17.4 µM (active)
- AC50 [17]: 51.1 µM (active)
- AC50 [18]: 6.41 µM (active)

SMILES: C[C@H]1CN([C@@H](C)CO)C(=O)Cc2cc(NC(=O)Nc3ccc4c(c3)OCO4)ccc2O[C@@H]1CN(C)CC1CCCCC1
- AC50 [15]: 62.9 µM (active)
- AC50 [16]: 22.2 µM (active)
- AC50 [18]: 31.2 µM (active)

SMILES: CCO[C@@H]1OC(C(=O)NCc2nc3ccccc3[nH]2)=C[C@H](c2ccc(Br)cc2)[C@H]1CCCO
- IC50 [19]: 45.4 µM (inactive)
